ChEMBL document CHEMBL4130375, “Design, synthesis and biological evaluation of 4-amidobenzimidazole acridine derivatives as dual PARP and Topo inhibitors for cancer therapy” (Eur J Med Chem, 2017)
Active and inactive are the calls of the source. No cut-off for these calls is given here.

Assays:
[1] = tested on: MCF7; assay: Potency index, ratio of m-AMSA IC50 to compound IC50 for human MCF7 cells; type: functional
[2] = tested on: HCT-116; assay: Antiproliferative activity against human HCT116 cells expressing topoisomerase-1 after 72 hrs by MTT assay; type: functional, cell-based; details: HCT-116, 72 h
[3] = tested on: HCC1937; assay: Potency index, ratio of m-AMSA IC50 to compound IC50 for human HCC1937 cells harboring BRCA1 mutant; type: functional
[4] = tested on: HCC1937; assay: Potency index, ratio of olaparib IC50 to compound IC50 for human HCC1937 cells harboring BRCA1 mutant; type: functional
[5] = tested on: HCT-116; assay: Potency index, ratio of m-AMSA IC50 to compound IC50 for human HCT116 cells expressing topoisomerase-1; type: functional
[6] = target: DNA topoisomerase 2-alpha (Homo sapiens) (UniProt P11388); assay: Poison activity at topoisomerase-2 in human MCF7 cells assessed as enzyme-DNA complex formation by measuring decrease in topoisomerase-2 protein expression after 24 hrs by Western blot analysis; type: cell-based
[7] = tested on: MCF7; assay: Induction of DNA double strand breaks in human MCF7 cells assessed as increase in 53BP1 level after 24 hrs by Western blot analysis; type: functional, cell-based
[8] = tested on: MCF7; assay: Induction of apoptosis in human MCF7 cells assessed as late apoptotic cells at 1 uM after 48 hrs by Annexin V-FITC/propidium iodide staining based flow cytometry (reference value: 0%); type: functional
[9] = tested on: MCF7; assay: Induction of apoptosis in human MCF7 cells assessed as early apoptotic cells at 5 uM after 48 hrs by Annexin V-FITC/propidium iodide staining based flow cytometry (reference value: 0.108%); type: functional
[10] = tested on: MCF7; assay: Induction of apoptosis in human MCF7 cells assessed as late apoptotic cells at 5 uM after 48 hrs by Annexin V-FITC/propidium iodide staining based flow cytometry (reference value: 0%); type: functional
[11] = tested on: MCF7; assay: Induction of apoptosis in human MCF7 cells assessed as live cells at 10 uM after 48 hrs by Annexin V-FITC/propidium iodide staining based flow cytometry (reference value: 99.9%); type: functional
[12] = tested on: MCF7; assay: Induction of apoptosis in human MCF7 cells assessed as necrotic cells at 10 uM after 48 hrs by Annexin V-FITC/propidium iodide staining based flow cytometry (reference value: 0%); type: functional
[13] = tested on: MCF7; assay: Induction of apoptosis in human MCF7 cells after 48 hrs by Annexin V-FITC/propidium iodide staining based flow cytometry; type: functional, cell-based
[14] = tested on: MCF7; assay: Upregulation of cleaved caspase-3 protein expression in human MCF7 cells after 24 hrs by Western blot method; type: functional, cell-based
[15] = tested on: MCF7; assay: Upregulation of cleaved caspase-8 protein expression in human MCF7 cells after 24 hrs by Western blot method; type: functional, cell-based
[16] = tested on: MCF7; assay: Upregulation of cleaved caspase-9 protein expression in human MCF7 cells after 24 hrs by Western blot method; type: functional, cell-based
[17] = tested on: MCF7; assay: Cell cycle arrest in human MCF7 cells assessed as accumulation at G0/G1 phase at 1 uM after 24 hrs by propidium iodide staining based flow cytometry (reference value: 17.67 +/- 1.25%); type: functional
[18] = tested on: MCF7; assay: Cell cycle arrest in human MCF7 cells assessed as accumulation at G2/M phase at 5 uM after 24 hrs by propidium iodide staining based flow cytometry (reference value: 22.61 +/- 1.55%); type: functional
[19] = tested on: MCF7; assay: Cell cycle arrest in human MCF7 cells assessed as accumulation at G0/G1 phase at 10 uM after 24 hrs by propidium iodide staining based flow cytometry (reference value: 17.67 +/- 1.25%); type: functional
[20] = tested on: MCF7; assay: Cell cycle arrest in human MCF7 cells assessed as accumulation at S phase at 10 uM after 24 hrs by propidium iodide staining based flow cytometry (reference value: 59.72 +/- 2.98%); type: functional
[21] = tested on: MCF7; assay: Upregulation of p18 protein expression in human MCF7 cells after 24 hrs by Western blot method; type: functional, cell-based
[22] = tested on: MCF7; assay: Upregulation of p21 protein expression in human MCF7 cells after 24 hrs by Western blot method; type: functional, cell-based
[23] = tested on: MCF7; assay: Downregulation of CDK6 protein expression in human MCF7 cells up to 10 uM after 24 hrs by Western blot method; type: functional, cell-based
[24] = tested on: MCF7; assay: Downregulation of CyclinA protein expression in human MCF7 cells up to 10 uM after 24 hrs by Western blot method; type: functional, cell-based
[25] = tested on: MCF7; assay: Downregulation of CyclinD protein expression in human MCF7 cells up to 10 uM after 24 hrs by Western blot method; type: functional, cell-based
[26] = Half life in human liver microsomes at 1.11 uM preincubated for 5 mins followed by NADPH addition by LC-MS/MS analysis; type: ADME, microsome
[27] = Intrinsic clearance in human liver microsomes at 1.11 uM preincubated for 5 mins followed by NADPH addition by LC-MS/MS analysis; type: ADME, microsome; details: read-out: CLH
[28] = Half life in mouse liver microsomes at 1.11 uM preincubated for 5 mins followed by NADPH addition by LC-MS/MS analysis; type: ADME, microsome
[29] = Intrinsic clearance in mouse liver microsomes at 1.11 uM preincubated for 5 mins followed by NADPH addition by LC-MS/MS analysis; type: ADME, microsome; details: read-out: CLH
[30] = Half life in rat liver microsomes at 1.11 uM preincubated for 5 mins followed by NADPH addition by LC-MS/MS analysis; type: ADME, microsome
[31] = target: T1, Cytochrome P450 1A2 (Homo sapiens, UniProt P05177); assay: Inhibition of CYP1A2 in human liver microsomes preincubated for 10 mins followed by NADPH/substrate addition measured after 20 mins by LC-MS/MS analysis
T1 sequence (P05177 whole entry): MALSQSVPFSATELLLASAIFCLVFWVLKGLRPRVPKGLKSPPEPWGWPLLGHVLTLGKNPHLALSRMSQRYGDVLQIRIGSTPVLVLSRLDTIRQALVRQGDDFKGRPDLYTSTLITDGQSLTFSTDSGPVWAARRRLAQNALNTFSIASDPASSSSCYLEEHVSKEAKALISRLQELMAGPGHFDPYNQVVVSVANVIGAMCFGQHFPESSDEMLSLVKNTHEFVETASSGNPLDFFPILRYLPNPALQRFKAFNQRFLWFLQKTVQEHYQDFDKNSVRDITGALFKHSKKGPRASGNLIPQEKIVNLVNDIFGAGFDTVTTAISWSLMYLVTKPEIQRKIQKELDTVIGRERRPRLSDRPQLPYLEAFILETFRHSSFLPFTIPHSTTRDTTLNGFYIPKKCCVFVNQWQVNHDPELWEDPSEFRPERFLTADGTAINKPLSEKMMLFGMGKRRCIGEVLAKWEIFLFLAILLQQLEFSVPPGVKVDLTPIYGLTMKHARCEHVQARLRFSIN

[32] = target: Cytochrome P450 2C9 (Homo sapiens, UniProt P11712); assay: Inhibition of CYP2C9 in human liver microsomes preincubated for 10 mins followed by NADPH/substrate addition measured after 20 mins by LC-MS/MS analysis
[33] = target: Cytochrome P450 2C19 (Homo sapiens, UniProt P33261); assay: Inhibition of CYP2C19 in human liver microsomes preincubated for 10 mins followed by NADPH/substrate addition measured after 20 mins by LC-MS/MS analysis
Cytochrome P450 2C19, sequence (P33261 whole entry): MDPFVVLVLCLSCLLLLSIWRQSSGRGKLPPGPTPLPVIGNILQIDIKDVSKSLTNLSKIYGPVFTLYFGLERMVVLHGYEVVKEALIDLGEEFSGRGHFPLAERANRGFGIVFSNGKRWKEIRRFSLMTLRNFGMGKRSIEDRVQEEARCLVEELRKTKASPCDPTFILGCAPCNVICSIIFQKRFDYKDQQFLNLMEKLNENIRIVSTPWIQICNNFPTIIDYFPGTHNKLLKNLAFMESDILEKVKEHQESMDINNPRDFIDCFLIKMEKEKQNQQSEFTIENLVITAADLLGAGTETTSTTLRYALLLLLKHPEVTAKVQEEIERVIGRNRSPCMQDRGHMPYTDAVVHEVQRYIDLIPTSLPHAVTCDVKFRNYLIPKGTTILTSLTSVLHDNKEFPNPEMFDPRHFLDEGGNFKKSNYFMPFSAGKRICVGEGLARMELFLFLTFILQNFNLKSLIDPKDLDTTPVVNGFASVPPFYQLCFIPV

DNA topoisomerase 2-alpha (Homo sapiens), sequence (P11388 whole entry): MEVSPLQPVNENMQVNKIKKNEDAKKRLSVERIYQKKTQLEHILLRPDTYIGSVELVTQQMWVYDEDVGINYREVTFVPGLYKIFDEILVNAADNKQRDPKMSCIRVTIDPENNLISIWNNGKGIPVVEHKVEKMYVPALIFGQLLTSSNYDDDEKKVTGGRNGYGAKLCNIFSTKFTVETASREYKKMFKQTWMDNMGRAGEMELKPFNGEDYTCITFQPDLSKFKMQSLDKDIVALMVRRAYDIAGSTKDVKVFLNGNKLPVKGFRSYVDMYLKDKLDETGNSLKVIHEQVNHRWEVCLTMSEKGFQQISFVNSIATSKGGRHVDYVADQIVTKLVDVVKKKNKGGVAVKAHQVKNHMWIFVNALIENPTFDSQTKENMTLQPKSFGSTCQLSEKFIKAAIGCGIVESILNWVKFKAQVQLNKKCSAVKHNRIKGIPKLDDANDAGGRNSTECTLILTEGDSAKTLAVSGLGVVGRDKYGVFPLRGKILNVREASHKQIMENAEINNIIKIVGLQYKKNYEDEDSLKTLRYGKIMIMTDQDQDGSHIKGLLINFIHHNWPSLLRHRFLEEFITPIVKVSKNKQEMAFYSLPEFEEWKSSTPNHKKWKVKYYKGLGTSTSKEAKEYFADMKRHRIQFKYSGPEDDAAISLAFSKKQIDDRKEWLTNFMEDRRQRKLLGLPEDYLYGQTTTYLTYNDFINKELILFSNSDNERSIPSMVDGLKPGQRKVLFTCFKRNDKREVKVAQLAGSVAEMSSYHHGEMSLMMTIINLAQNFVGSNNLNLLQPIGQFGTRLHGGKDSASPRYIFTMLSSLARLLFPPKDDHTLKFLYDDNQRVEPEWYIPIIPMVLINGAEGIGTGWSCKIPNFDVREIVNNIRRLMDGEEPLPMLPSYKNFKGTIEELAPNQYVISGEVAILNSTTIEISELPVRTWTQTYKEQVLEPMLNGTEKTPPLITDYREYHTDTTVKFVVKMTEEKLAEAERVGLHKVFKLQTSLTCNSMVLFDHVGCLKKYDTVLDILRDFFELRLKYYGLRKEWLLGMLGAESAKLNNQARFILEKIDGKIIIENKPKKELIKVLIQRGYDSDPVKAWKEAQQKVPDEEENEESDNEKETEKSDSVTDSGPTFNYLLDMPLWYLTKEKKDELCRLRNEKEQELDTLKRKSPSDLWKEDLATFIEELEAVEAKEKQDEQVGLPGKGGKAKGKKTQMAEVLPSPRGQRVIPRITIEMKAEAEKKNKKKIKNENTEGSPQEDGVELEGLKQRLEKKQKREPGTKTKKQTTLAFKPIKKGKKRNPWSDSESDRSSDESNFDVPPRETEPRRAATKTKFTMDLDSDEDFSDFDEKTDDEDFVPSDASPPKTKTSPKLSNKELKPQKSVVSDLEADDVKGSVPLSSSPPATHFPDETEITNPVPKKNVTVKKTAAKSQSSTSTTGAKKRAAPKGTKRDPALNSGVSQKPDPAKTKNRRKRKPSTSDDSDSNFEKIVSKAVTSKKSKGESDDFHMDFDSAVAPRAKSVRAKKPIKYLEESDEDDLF
Cytochrome P450 2C9, sequence (P11712 whole entry): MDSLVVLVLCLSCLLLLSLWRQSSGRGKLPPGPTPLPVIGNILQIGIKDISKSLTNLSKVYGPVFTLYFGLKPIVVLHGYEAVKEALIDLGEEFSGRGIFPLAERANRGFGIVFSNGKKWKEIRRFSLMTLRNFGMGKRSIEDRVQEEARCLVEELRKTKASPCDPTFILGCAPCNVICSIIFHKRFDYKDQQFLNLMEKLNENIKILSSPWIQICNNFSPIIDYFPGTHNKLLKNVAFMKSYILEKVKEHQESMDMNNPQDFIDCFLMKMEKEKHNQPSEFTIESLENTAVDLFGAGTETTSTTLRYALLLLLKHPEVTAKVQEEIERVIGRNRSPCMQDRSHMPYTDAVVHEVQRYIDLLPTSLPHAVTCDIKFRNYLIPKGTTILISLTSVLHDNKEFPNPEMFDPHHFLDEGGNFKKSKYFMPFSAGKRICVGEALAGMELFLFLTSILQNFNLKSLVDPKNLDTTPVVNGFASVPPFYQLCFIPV

Question: Which “Ratio IC50” value [1] does the source give for `Cc1cccc2c(Nc3cccc(-c4nc5c(C(N)=O)cccc5[nH]4)c3)c3ccccc3nc12` here?
Answer: 4

Question: And the IC50 [2]?
Answer: 1430 nM

Question: And the Ratio IC50 [3]?
Answer: 9.5

Question: What about the Ratio IC50 [4] of the same compound?
Answer: 6

Question: What about the “Ratio IC50” value [5] of the same compound?
Answer: 2.7

Question: What about the Activity [6] of the same compound?
Answer: Dose-dependent effect

Question: What about the Activity [7] of the same compound?
Answer: Dose-dependent effect

Question: And the Activity [8]?
Answer: 22.2%

Question: And the Activity [9]?
Answer: 23.9%

Question: What about the Activity [10] of the same compound?
Answer: 36.4%

Question: What about the Activity [11] of the same compound?
Answer: 8.18%

Question: And the Activity [12]?
Answer: 0.327%

Question: And the Activity [13]?
Answer: Dose-dependent effect

Question: And the Activity [14]?
Answer: Dose-dependent effect

Question: What about the Activity [15] of the same compound?
Answer: Dose-dependent effect

Question: What about the Activity [16] of the same compound?
Answer: Dose-dependent effect

Question: And the Activity [17]?
Answer: 19.96%

Question: And the Activity [18]?
Answer: 14.08%

Question: What about the Activity [19] of the same compound?
Answer: 58.27%

Question: And the Activity [20]?
Answer: 30.87%

Question: And the Activity [21]?
Answer: Dose-dependent effect

Question: What about the Activity [22] of the same compound?
Answer: Dose-dependent effect

Question: And the Activity [23]?
Answer: Active

Question: And the Activity [24]?
Answer: Active

Question: And the Activity [25]?
Answer: Active

Question: And the half-life at 1.11 µM [26]?
Answer: 27.8 min

Question: What about the microsomal CLint at 1.11 µM [27] of the same compound?
Answer: 35.6 µL/min/mg

Question: And the half-life at 1.11 µM [28]?
Answer: 86.6 min

Question: What about the microsomal CLint at 1.11 µM [29] of the same compound?
Answer: 11.4 µL/min/mg

Question: What about the half-life at 1.11 µM [30] of the same compound?
Answer: 34.8 min

Question: What about the IC50 [31] of the same compound?
Answer: > 10000 nM

Question: What about the IC50 [32] of the same compound?
Answer: 2200 nM

Question: And the IC50 [33]?
Answer: > 10000 nM
